Data taken from PMC4177760, “Cytotoxicity of four Aframomum species (A. arundinaceum, A. alboviolaceum, A. kayserianum and A. polyanthum) towards multi-factorial drug resistant cancer cell lines” (BMC Complementary and Alternative Medicine, 2014).
Like-named read-outs stand apart in the source and are kept apart here.

Key:
[1] = test system: drug-sensitive CCRF-CEM leukemia cells; test: Resazurin reduction assay, CCRF-CEM; format: cell-based, human
Procedure: (§1) The cell lines used the present work, their origins and their treatments were previously reported. They include drug-sensitive CCRF-CEM and multidrug-resistant P-glycoprotein over-expressing CEM/ADR5000 leukemia cells, the MDA-MB-231-pcDNA3 breast cancer cells and its resistant subline MDA-MB-231-BCRP clone 23), the HCT116 (p53^+/+) colon cancer cells and its knockout clones HCT116 (p53^-/-), the U87MG glioblastoma cells and its resistant subline U87MG.ΔEGFR, HepG2 hepatocarcinoma cells and AML12 normal hepatocytes. The CCRF-CEM and CEM/ADR5000 leukemia cells were maintained in RPMI 1640 medium (Invitrogen) supplemented with 10% fetal calf serum in a humidified 5% CO2 atmosphere at 37°C. Sensitive and resistant cells were kindly provided by Dr. Axel Sauerbrey (Department of Pediatrics, University of Jena, Jena, Germany). The generation of the resistant subline was previously described. Breast cancer cells, transduced with control vector (MDA-MB-231-pcDNA3) or with cDNA for the breast cancer resistance protein BCRP (MDA-MB-231-BCRP clone 23), were maintained under standard conditions as described above for CCRF-CEM cells. Human wild-type HCT116 (p53^+/+) colon cancer cells as well as knockout clones HCT116 (p53^-/-) derived by homologous recombination were a generous gift from Dr. B. Vogelstein and H. Hermeking (Howard Hughes Medical Institute, Baltimore, MD). Human glioblastoma multiforme U87MG cells (non-transduced) and U87MG cell line transduced with an expression vector harboring an epidermal growth factor receptor (EGFR) gene with a genomic deletion of exons 2 through 7 (U87MG.ΔEGFR) were kindly provided by Dr. W. K. Cavenee (Ludwig Institute for Cancer Research, San Diego, CA). MDA-MB-231-BCRP, U87MG.ΔEGFR and HCT116 (p53^-/-) were maintained in DMEM medium containing 10% FBS (Invitrogen) and 1% penicillin (100 U/mL)-streptomycin (100 μg/mL) (Invitrogen) and were continuously treated with 800 ng/mL and 400 μg/mL geneticin, respectively. Human HepG2 hepatocellular carcinoma cells and normal AML12 heptocytes were obtained from the American Type Culture Collection (ATCC, USA). The above medium without geneticin was used to maintain MDA-MB-231, U87MG, HCT116 (p53^+/+), HepG2 and AML12 cell lines. The cells were passaged twice weekly. All experiments were performed with cells in the logarithmic growth phase.
(§2) The cytotoxicity of the studied samples was performed by resazurin reduction assay as we previously described. Briefly, adherent cells at 1x10^4 cells were allowed to attach overnight and then treated with different studied samples. […] For suspension cells, aliquots of 2 × 10^4 cells per well were seeded in 96-well-plates in a final volume of 200 μL. […] The tested concentrations ranges were 0.16 μg/mL to 40 μg/mL for crude extracts and isolated compounds and 0.08 μg/mL to 20 μg/mL for doxorubicin. After 72 h incubation and a resazurin (Sigma-Aldrich, Schnelldorf, Germany) staining, fluorescence was measured on an Infinite M2000 Pro™ plate reader (Tecan, Crailsheim, Germany) using an excitation wavelength of 544 nm and an emission wavelength of 590 nm. Each assay was done at least two times, with six replicates each. IC50 values represent the sample’s concentrations required to inhibit 50% of cell proliferation and were calculated from a calibration curve by linear regression using Microsoft Excel.

[2] = test system: MDA-MB-231-pcDNA3 breast cancer cells; test: Resazurin reduction assay, MDA-MB-231; format: cell-based; details: MDA-MB-231, 72 h
Procedure: as §1, §2

[3] = test system: HepG2 hepatocarcinoma cells; test: Resazurin reduction assay, HepG2; format: cell-based, human; details: HepG2, 72 h
Procedure: as §1, §2

[4] = test system: HCT116 (p53-/-) colon cancer cells; test: Resazurin reduction assay, HCT116 p53-/-; format: cell-based, human; details: for IC50: HCT116 p53-/-, 72 h; for degree of resistance: IC50 HCT116 p53-/- divided by IC50 HCT116 p53+/+
Procedure: as §1, §2

[5] = test system: multidrug-resistant P-glycoprotein over-expressing CEM/ADR5000 leukemia cells; test: Resazurin reduction assay, CEM/ADR5000; format: cell-based, human; details: for IC50: CEM/ADR5000, 72 h; for degree of resistance: IC50 CEM/ADR5000 divided by IC50 CCRF-CEM
Procedure: as §1, §2

[6] = test system: U87MG.ΔEGFR glioblastoma cells; test: Resazurin reduction assay, U87MG.ΔEGFR; format: cell-based, human; details: for IC50: U87MG.ΔEGFR, 72 h; for degree of resistance: IC50 U87MG.ΔEGFR divided by IC50 U87MG
Procedure: as §1, §2

AML12 normal hepatocytes = test: Resazurin reduction assay, AML12; format: cell-based; details: 72 h
Procedure: as §1, §2

[7] = test system: MDA-MB-231-BCRP clone 23 breast cancer cells; test: Resazurin reduction assay, MDA-MB-231-BCRP; format: cell-based; details: for degree of resistance: IC50 MDA-MB-231-BCRP divided by IC50 MDA-MB-231; for IC50: 72 h
Procedure: as §1, §2

[8] = test system: HCT116 (p53+/+) colon cancer cells; test: Resazurin reduction assay, HCT116 p53+/+; format: cell-based, human
Procedure: as §1, §2

U87MG glioblastoma cells = test: Resazurin reduction assay, U87MG; format: cell-based, human; details: 72 h
Procedure: as §1, §2

[9] = test system: human promyeloleukemia cell line HL-60; set-up: method as in PMID 14505793, PMID 12832847, PMID 16310358; details: HL-60, via a transient induction of caspase-3/CPP32 activity; cited from earlier work
[10] = test system: nine cancer cell lines, sensitive and MDR phenotypes; test: Resazurin reduction assay, all tested cancer cell lines; format: cell-based; details: read-out: IC50 values on all tested cancer cell lines
Procedure: The cell lines used the present work, their origins and their treatments were previously reported. They include drug-sensitive CCRF-CEM and multidrug-resistant P-glycoprotein over-expressing CEM/ADR5000 leukemia cells, the MDA-MB-231-pcDNA3 breast cancer cells and its resistant subline MDA-MB-231-BCRP clone 23), the HCT116 (p53^+/+) colon cancer cells and its knockout clones HCT116 (p53^-/-), the U87MG glioblastoma cells and its resistant subline U87MG.ΔEGFR, HepG2 hepatocarcinoma cells and AML12 normal hepatocytes. The CCRF-CEM and CEM/ADR5000 leukemia cells were maintained in RPMI 1640 medium (Invitrogen) supplemented with 10% fetal calf serum in a humidified 5% CO2 atmosphere at 37°C. Sensitive and resistant cells were kindly provided by Dr. Axel Sauerbrey (Department of Pediatrics, University of Jena, Jena, Germany). The generation of the resistant subline was previously described. […]
The cytotoxicity of the studied samples was performed by resazurin reduction assay as we previously described. […] After 72 h incubation and a resazurin (Sigma-Aldrich, Schnelldorf, Germany) staining, fluorescence was measured on an Infinite M2000 Pro™ plate reader (Tecan, Crailsheim, Germany) using an excitation wavelength of 544 nm and an emission wavelength of 590 nm. […]

[11] = single concentration 40 μg/mL, 72 h, preliminary test
[12] = Homo sapiens, HCT-116, read-out: IC50
[13] = Homo sapiens, HCT-116, 72 h, read-out: IC50
[14] = Homo sapiens, U-87 MG, read-out: IC50
[15] = MDA-MB-231-BCRP, read-out: IC50
[16] = Homo sapiens, CCRF-CEM, 72 h; read-out: IC50

Molecule	Growth percentage (growth proliferation) of CCRF-CEM cells [1, 11]	IC50 ([2]; Homo sapiens, read-out: IC50) [µg/mL]	IC50 ([3]; Homo sapiens, read-out: IC50) [µg/mL]	IC50 [4, 12] [µg/mL]	IC50 ([5]; Homo sapiens, read-out: IC50) [µg/mL]	degree of resistance [5]	IC50 ([6]; Homo sapiens, read-out: IC50) [µg/mL]	IC50 (AML12 normal hepatocytes; Mus musculus, read-out: IC50) [µg/mL]	degree of resistance [7]	IC50 [8, 13] [µg/mL]	IC50 (U87MG glioblastoma cells; [14]) [µg/mL]	IC50 [1, 16] [µg/mL]	other results
1,4-dihydroxybenzene [Compound 7]	more than 50%	–	–	–	–	–	–	–	–	–	–	–	–
CC1(C)CCC[C@@]2(C)[C@H]1CC[C@@]1(CO1)[C@@H]2C/C=C(/C=O)CC=O [Compound 1, aframodial]	more than 50%	–	–	–	–	–	–	–	–	–	–	–	–
C=C1CCC2C(C)(C)CCCC2(C)C1CC=C(C=O)CC=O (stereo not drawn) [Compound 2, 8(17),12-labdadien-15,16-dial]	more than 50%	–	–	–	–	–	–	–	–	–	–	–	–
CC1(C)CCCC2(C)C1CCC1(CO1)C2CC=C1CCOC1=O (stereo not drawn) [Compound 3, galanolactone]	more than 50%	–	–	–	–	–	–	–	–	–	–	–	–
CC1(C)CCCC2(C)C1CCC1(C=O)C(O)CC(C=O)=CCC21 (stereo not drawn) [Compound 4, galanal A]	47.78%	> 40	> 40	> 40	> 40	> 2.31	> 40	> 40	< 0.70	> 40	> 40	–	IC50 ([7]; MDA-MB-231/BCRP, MDA-MB-231-BCRP, read-out: IC50): 28 ± 2.39 µg/mL; IC50 ([1]; Homo sapiens, CCRF-CEM, 72 h, CCRF-CEM, read-out: IC50): 17.3 ± 1.96 µg/mL
CC1(C)CCCC2(C)C1CCC1(C=O)C(O)CC(C=O)=CCC21 (stereo not drawn) [Compound 5, galanal B]	49.81%	–	–	–	–	> 2.02	–	–	–	–	–	–	IC50 [2]: - ((-): >40 μg/mL); IC50 [3]: - ((-): >40 μg/mL); IC50 [4]: - ((-): >40 μg/mL); IC50 [5]: - ((-): >40 μg/mL); IC50 [6]: - ((-): >40 μg/mL); IC50 (AML12 normal hepatocytes): - ((-): >40 μg/mL); IC50 ([7]; MDA-MB-231-BCRP): - ((-): >40 μg/mL); IC50 ([1]; CCRF-CEM, 72 h): 19.81 ± 2.01 µg/mL; IC50 ([8]; 72 h): - ((-): >40 μg/mL); IC50 (U87MG glioblastoma cells): - ((-): >40 μg/mL)
CC1=CC(O)C(C(C)C)CC1O (stereo not drawn) [Compound 6, 1-p-menthene-3,6-diol]	more than 50%	–	–	–	–	–	–	–	–	–	–	–	–
O=C1C[C@@H](c2ccc(O)cc2)Oc2cc(O)cc(O)c21 [Compound 8, naringenin]	38.49%	9.51 ± 1.03	23.5 ± 1.95	13.9 ± 0.94	7.86 ± 0.74	0.64	18 ± 1.34	> 40	1.91	13.7 ± 1.11	29.8 ± 1.88	12.2 ± 1.87	degree of resistance [4]: 1.02; apoptosis induction [9]: induced apoptosis; degree of resistance [6]: 0.60; IC50 [7, 15]: 18.1 ± 2.01 µg/mL; IC50 [10]: < 40 µg/mL
COc1ccc(-c2oc3cc(OC)cc(O)c3c(=O)c2OC)cc1 [Compound 9, kaempferol-3,7,4’-trimethylether]	39.58%	> 40	> 40	36.7 ± 2.31	18.2 ± 1.18	0.99	> 40	> 40	< 0.83	> 40	> 40	18.4 ± 2.04	IC50 ([7]; MDA-MB-231/BCRP): 33.1 ± 2.64 µg/mL
COc1cccc2c1C(=O)c1c(O)c3c(c(O)c1C2=O)C[C@@](O)(C(=O)CO)C[C@@H]3O[C@H]1C[C@H](N)[C@H](O)[C@H](C)O1 [Doxorubucin, Doxorubicin, reference compound]	–	1.1 ± 0.01	1.41 ± 0.12	4.06 ± 0.04	> 20	1772	6.11 ± 0.04	> 40	7.11	1.43 ± 0.02	1.06 ± 0.03	0.11 ± 0.01	degree of resistance [4]: 2.84; degree of resistance [6]: 5.76; IC50 [7, 15]: 7.83 ± 0.01 µg/mL; IC50 ([10]; all nine tested cancer cell lines): < 40 µg/mL
